Results as given in patent publication US7531320B2, “Modulation of β-catenin/TCF-activated transcription” (priority 2003, dated 2009).

Biological target: T1, β-catenin/CBP complex (Homo sapiens, UniProt Q92793)
T1 construct: endogenous in cells; host or cells: SW480
Test: Co-immunoprecipitation of β-catenin with CBP in SW480 cells
Format: cell-based
Method: FIG. 3. COMPOUND 1 disrupts the β-catenin/CBP complex but not the p300/β-catenin complex. • A. Full-length Xenopus laevis β-catenin (1.1, 2.2, and 3.3 μg) or murine CBP (0.14, 0.28, 0.55, 1.1, and 2.2 μg) plasmids were cotransfected in SW480 cells along with the β-catenin/TCF (1.1 μg) reporter gene construct. Empty pcDNA3 vector was used to equalize the amount of DNA used in each reaction. Dual luciferase assays were performed 24 hours post COMPOUND 1 treatment. All experiments were performed in duplicate and values plotted as means +/−standard deviation. • B. COMPOUND 1 competes with β-catenin for CBP. SW480 cells were treated with 5 or 10 μM of COMPOUND 1 or control (0.5% DMSO). 24 hours post treatment, lysates were incubated with beads coated with either control the antibody, or anti-CBP, or anti-p300 antibodies. Co-immunoprecipitated proteins were subjected to gel electrophoresis and immunoblotting using anti-β-catenin antibodies. The arrows point to the immunoprecipitated β-catenin (doublets). • C. CBP (1-111) is the minimal region of interaction with β-catenin. SW480 cells transfected with a CBP deletion series were subjected to immunoprecipitation using anti-β-catenin antibodies coated on Protein A-agarose beads. The immune complexes were washed and subjected to gel electrophoresis followed by immunoblotting using anti-His antibodies. […]

T1 sequence (Q92793 whole entry, one chain of several): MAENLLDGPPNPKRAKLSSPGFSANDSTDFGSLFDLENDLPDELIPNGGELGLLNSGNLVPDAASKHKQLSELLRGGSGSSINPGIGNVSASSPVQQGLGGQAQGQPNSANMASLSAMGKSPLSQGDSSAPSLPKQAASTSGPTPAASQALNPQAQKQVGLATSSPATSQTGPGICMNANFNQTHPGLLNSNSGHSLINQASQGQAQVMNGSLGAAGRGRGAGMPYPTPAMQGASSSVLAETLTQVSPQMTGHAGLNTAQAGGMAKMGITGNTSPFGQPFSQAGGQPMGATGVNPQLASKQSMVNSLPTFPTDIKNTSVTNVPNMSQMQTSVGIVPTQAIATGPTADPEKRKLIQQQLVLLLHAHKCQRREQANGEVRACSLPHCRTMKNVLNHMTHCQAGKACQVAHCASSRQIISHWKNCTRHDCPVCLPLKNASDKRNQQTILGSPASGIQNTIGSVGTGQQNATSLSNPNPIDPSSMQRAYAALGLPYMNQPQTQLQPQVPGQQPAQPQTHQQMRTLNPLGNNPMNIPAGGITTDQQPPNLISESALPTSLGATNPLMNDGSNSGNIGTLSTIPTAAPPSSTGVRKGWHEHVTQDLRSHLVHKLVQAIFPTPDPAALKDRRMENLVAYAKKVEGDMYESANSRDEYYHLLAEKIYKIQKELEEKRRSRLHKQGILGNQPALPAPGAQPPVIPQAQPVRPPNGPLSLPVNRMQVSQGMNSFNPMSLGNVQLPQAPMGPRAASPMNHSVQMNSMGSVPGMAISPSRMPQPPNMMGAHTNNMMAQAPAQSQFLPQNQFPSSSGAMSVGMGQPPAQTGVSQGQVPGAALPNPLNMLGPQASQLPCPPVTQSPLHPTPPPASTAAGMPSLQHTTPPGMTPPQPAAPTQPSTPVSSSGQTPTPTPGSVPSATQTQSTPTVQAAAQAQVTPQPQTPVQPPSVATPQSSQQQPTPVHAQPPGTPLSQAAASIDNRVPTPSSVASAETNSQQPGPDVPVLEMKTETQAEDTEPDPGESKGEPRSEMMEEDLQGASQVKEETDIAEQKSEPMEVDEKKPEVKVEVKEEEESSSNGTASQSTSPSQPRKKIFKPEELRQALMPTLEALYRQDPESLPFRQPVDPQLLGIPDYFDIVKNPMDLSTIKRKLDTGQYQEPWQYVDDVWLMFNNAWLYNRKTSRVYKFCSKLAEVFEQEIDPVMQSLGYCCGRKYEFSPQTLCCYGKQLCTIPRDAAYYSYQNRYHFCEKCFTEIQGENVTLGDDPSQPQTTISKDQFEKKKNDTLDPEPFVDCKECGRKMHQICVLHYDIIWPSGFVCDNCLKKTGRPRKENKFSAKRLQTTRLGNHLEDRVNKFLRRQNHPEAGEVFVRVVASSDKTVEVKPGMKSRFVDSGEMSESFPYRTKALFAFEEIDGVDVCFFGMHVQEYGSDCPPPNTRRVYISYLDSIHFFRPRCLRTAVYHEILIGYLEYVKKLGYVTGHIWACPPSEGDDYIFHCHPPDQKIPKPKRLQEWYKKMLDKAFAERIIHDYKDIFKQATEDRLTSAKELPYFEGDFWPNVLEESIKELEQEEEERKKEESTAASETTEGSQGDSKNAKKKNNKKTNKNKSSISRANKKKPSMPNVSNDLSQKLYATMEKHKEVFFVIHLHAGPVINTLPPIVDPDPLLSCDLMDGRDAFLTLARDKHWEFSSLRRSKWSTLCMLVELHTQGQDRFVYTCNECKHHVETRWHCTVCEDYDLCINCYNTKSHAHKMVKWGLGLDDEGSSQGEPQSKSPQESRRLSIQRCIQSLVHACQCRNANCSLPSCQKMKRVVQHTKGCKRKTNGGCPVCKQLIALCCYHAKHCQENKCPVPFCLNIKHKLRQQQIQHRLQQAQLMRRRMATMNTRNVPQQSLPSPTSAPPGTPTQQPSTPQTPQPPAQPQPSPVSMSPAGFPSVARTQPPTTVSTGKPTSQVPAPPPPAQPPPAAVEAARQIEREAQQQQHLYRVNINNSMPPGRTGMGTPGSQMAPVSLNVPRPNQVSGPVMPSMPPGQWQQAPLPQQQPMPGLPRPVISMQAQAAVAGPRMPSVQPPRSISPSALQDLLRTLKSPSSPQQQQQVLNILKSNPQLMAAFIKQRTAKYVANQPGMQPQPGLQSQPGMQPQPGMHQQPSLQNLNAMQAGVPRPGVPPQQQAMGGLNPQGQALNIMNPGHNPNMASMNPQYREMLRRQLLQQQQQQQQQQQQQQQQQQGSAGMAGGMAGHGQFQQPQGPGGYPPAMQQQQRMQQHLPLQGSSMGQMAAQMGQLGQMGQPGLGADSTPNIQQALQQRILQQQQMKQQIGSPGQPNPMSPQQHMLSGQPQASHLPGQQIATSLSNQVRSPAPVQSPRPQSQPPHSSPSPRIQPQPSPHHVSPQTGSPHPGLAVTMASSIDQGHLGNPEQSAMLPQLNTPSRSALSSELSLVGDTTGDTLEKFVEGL

Structure (SMILES): O=C1C(Cc2ccc(O)cc2)N2C(=O)CCN(C(=O)NCc3ccccc3)C2CN1Cc1cccc2ccccc12 (centres unmarked) [COMPOUND 1]
- CBP fragments binding to immunoprecipitated β-catenin in presence of excess COMPOUND 1 (CBP (1-111), (1-211), (1-351), 50 μM COMPOUND 1): dramatically competed away
- Immunoprecipitation of β-catenin with CBP (SW480 cells, 5 or 10 μM, 24 hours, concentration dependent): inhibited
